Data as given in paper PMC6413339 (EBioMedicine, 2019).
“Also recorded” adds a separate entry of the source.

Columns and labels:
[1] = system: AML cell lines (MV4–11, MOLM-14, MOLM-14 (ITD, D835Y), MOLM-14 (ITD, F691 L)); assay: Cell cycle analysis (PI flow cytometry); format: cell-based, human; settings: 24 h and 48 h
Description: Cells seeded into T-25 flasks at a density of 8.0 × 10^4 cells/mL and incubated overnight at 37 °C with 5% CO2. Each treatment was performed in triplicates, with three flasks per treatment each with enough volume for both assays at the applicable time points. Following the overnight incubation, cells were treated with either DMSO or different concentrations of HSN431 (as indicated) in triplicates, mixed well and incubated. At each time point (24 and 48 h), aliquots of 1.5 mL of cells were collected from each flask and placed into labeled FACS tubes (for Annexin V apoptosis) or labeled 15 cc conical tubes (for cell cycle) and centrifuged at 300 × g for 5 min. Cells were washed twice with 1× PBS.
For cell cycle, cell pellets were resuspended in 0.5 mL PBS in 15 cc conical tubes and fixed with 4.5 mL of 70% ethanol. Fixed cells were stored at −20 °C until analysis with the Propidium Iodide (PI) Flow Cytometry Kit (cat. no. ab139418, Abcam, Cambridge, MA, USA). Samples were analyzed in duplicates on a FACSCanto II flow cytometer (BD Bioscience, San Jose, CA, USA) and cell cycle distribution was analyzed using the Watson algorithm analysis in FlowJo software (Flowjo, LLC, Ashland, OR).

[2] = system: MV4–11-luc cells; assay: In vivo efficacy, orthotopic human AML model; settings: for Photon intensity on whole body (mean±SEM): 25 mg/kg IP, 3×/week
Description: The in vivo efficacy of compounds was assessed in an orthotopic human AML model in NSG (NOD scid gamma, NOD-scid IL2Rg^null) mice that were bred at University of Maryland Baltimore (mating pairs acquired from Jackson Laboratories; Maine). […]. Three days later, engraftment was assessed by imaging on a Xenogen IVIS-2 Imaging System (Alameda) after an intraperitoneal (IP) injection of 150 mg/kg luciferin. Mice were sorted into four or five groups (n = 5) so that mean intensity (i.e., disease burden) was equal. Dosing started on day of sorting. Compounds were dissolved in 85% PBS (pH 7.4) buffer containing 10% DMSO and 5% Cremophore. The vehicle (buffer without compounds) was used as control. Mice were injected 3 to 5 days per week via IP injection. Mice were weighed on day of dosing and imaged once per week. […]. All mice were housed in a 12-h light/dark cycle with access to food and water ad libitum. Studies were performed with Institutional Animal Care and Use Committee (UMB and Purdue University) approval.
[…]. Female mice were dosed daily for 5 days via intraperitoneal injection and then monitored for an additional week for weight loss, a sign of toxicity in mice. […] To evaluate the anti-leukemic efficacy in vivo, six-week-old female NSG or NRG mice were injected intravenously with FLT3-ITD expressing acute myeloid leukemia cells (MV4–11), expressing luciferase. […] Dosing (i.p) with the compounds was then started. The mice were dosed with 25 mg/kg of the compounds three times a week (MWF). […] […].

[3] = target: T1, MEK1 (Homo sapiens, UniProt Q02750); assay: Cell-free kinase assay, dose-response; format: biochemical; settings: up to 1 μM; ATP 100 μM
T1 construct: purchased Invitrogen PV3303
Description: (§1) Cell-free kinase activity assays were performed at Reaction Biology Corporation. Briefly, kinases were incubated with substrates, 100 μM ATP and a 3-fold serial dilution of compounds starting at 1 μM. DMSO was used as control. […] Experiments were performed in duplicates. The concentrations of kinases and substrates used in the assays are indicated on Table S1. Kinase activity was quantified using the ADP-Glo™ Kinase Assay System (Promega, Madison, WI) following the manufacturer's recommendations.

[4] = target: T2, RAF-1 (Homo sapiens, UniProt P04049, Y340D/Y341D); assay: Cell-free kinase assay, dose-response; format: biochemical; settings: ATP 100 μM; read-out: IC50 RAF-1 (c-Raf)
T2 construct: purchased Invitrogen PV3805
Description: as §1

[5] = target: T3, p38 (Homo sapiens, UniProt Q16539); assay: Cell-free kinase assay, dose-response; format: biochemical; settings: ATP 100 μM
T3 construct: purchased Invitrogen PV3304
Description: as §1

[6] = target: T4, RSK1 (Homo sapiens, UniProt Q15418); assay: Cell-free kinase assay, dose-response; format: biochemical; settings: ATP 100 μM
T4 construct: purchased Invitrogen PR6812A
Description: as §1

[7] = target: T5, BRAF (Homo sapiens, UniProt P15056); assay: Cell-free kinase assay, dose-response; format: biochemical; settings: ATP 100 μM; read-out: IC50 BRAF (B-Raf)
T5 construct: purchased BPS 40005
Description: as §1

[8] = target: T6, p70S6K (Homo sapiens, UniProt P23443); assay: Cell-free kinase assay, dose-response; format: biochemical; settings: ATP 100 μM
T6 construct: purchased Invitrogen PV3815
Description: as §1

[9] = target: T7, ARAF (Homo sapiens, UniProt P10398); assay: Cell-free kinase assay, dose-response; format: biochemical; settings: ATP 100 μM; read-out: IC50 ARAF (A-Raf)
T7 construct: purchased BPS 40010
Description: as §1

[10] = system: phospho-FLT3; assay: Western blot, MOLM-14 (ITD, D835Y) cells; format: cell-based, human
[11] = target: T8, FLT3 (Homo sapiens, UniProt P36888); assay: Cell-free kinase assay, single dose (Reaction Biology, ADP-Glo); format: biochemical; settings: inhibitor 500 nM; 100 μM ATP; average of duplicate
T8 construct: purchased Invitrogen PV3182
T8 sequence (P36888 564-993 limits assumed): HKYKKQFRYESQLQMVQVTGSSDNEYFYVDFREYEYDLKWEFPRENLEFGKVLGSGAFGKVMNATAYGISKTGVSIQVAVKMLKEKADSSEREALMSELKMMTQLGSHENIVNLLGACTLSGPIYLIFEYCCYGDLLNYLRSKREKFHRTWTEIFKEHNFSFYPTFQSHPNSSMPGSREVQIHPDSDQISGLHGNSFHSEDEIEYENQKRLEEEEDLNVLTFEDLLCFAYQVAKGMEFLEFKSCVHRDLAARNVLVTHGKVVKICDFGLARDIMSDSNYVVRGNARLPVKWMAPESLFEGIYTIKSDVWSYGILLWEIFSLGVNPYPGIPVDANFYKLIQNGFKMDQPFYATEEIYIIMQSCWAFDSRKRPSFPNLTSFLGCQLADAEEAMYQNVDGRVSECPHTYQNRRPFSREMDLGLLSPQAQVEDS
Description: as §1, with “Briefly, kinases were incubated with substrates, 100 μM ATP and a 3-fold serial dilution of compounds starting at 1 μM.” left out

T3 sequence (Q16539 whole entry): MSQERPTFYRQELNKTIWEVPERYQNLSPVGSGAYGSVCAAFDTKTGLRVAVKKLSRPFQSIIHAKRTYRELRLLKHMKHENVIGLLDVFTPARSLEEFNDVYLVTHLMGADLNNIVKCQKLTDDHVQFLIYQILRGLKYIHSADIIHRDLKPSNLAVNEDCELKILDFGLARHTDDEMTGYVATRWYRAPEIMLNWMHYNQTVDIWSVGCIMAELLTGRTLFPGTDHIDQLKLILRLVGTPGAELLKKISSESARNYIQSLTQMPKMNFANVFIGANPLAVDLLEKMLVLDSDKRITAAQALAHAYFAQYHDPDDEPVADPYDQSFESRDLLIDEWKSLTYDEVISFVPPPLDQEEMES
T4 sequence (Q15418 whole entry): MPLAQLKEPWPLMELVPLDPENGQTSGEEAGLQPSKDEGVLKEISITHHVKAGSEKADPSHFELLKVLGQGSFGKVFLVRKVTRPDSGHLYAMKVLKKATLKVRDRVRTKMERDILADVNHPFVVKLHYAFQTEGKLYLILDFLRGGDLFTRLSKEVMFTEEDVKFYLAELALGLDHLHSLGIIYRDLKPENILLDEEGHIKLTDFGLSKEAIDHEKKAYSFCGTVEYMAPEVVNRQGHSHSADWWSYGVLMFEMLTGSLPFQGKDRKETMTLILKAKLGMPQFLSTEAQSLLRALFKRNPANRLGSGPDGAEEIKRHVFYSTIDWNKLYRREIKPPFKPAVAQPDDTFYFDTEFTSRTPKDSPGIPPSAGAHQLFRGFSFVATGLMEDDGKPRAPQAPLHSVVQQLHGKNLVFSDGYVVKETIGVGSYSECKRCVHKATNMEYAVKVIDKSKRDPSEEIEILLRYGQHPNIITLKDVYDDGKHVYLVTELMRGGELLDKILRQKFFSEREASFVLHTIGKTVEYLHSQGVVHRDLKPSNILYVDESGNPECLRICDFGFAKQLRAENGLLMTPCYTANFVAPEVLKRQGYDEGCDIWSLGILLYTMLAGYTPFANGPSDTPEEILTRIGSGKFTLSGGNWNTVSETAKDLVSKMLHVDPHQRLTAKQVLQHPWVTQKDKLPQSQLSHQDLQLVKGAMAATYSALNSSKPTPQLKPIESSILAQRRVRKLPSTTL
T6 sequence (P23443 whole entry): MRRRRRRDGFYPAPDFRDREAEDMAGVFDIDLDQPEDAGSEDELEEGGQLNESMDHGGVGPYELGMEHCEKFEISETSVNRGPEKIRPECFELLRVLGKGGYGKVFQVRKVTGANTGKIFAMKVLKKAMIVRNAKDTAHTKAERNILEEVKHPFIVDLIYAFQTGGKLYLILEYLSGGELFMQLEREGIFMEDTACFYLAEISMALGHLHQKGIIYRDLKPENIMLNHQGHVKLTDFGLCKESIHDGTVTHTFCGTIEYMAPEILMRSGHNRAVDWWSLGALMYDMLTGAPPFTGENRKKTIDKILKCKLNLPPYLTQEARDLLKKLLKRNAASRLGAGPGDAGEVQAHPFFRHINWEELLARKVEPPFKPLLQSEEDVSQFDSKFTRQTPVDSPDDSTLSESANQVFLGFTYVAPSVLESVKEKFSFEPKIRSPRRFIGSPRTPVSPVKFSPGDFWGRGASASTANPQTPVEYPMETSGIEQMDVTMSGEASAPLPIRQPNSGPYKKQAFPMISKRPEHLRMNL
T7 sequence (P10398 whole entry): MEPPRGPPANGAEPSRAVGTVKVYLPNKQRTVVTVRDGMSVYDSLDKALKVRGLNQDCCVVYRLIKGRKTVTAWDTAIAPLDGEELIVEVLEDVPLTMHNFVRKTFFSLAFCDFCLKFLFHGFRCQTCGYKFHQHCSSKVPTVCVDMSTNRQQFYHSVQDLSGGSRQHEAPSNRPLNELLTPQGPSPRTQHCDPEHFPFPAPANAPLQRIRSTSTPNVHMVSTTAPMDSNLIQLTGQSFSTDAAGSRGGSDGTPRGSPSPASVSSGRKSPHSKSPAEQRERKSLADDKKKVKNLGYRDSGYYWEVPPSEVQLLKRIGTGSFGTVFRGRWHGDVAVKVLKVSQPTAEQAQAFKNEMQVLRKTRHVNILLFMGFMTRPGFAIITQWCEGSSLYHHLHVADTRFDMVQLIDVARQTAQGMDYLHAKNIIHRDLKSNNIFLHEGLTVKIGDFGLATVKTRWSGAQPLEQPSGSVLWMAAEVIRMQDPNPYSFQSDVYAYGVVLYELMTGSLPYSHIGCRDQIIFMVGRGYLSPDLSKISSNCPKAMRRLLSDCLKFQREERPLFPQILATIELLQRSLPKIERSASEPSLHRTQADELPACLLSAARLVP
T5 sequence (P15056 whole entry): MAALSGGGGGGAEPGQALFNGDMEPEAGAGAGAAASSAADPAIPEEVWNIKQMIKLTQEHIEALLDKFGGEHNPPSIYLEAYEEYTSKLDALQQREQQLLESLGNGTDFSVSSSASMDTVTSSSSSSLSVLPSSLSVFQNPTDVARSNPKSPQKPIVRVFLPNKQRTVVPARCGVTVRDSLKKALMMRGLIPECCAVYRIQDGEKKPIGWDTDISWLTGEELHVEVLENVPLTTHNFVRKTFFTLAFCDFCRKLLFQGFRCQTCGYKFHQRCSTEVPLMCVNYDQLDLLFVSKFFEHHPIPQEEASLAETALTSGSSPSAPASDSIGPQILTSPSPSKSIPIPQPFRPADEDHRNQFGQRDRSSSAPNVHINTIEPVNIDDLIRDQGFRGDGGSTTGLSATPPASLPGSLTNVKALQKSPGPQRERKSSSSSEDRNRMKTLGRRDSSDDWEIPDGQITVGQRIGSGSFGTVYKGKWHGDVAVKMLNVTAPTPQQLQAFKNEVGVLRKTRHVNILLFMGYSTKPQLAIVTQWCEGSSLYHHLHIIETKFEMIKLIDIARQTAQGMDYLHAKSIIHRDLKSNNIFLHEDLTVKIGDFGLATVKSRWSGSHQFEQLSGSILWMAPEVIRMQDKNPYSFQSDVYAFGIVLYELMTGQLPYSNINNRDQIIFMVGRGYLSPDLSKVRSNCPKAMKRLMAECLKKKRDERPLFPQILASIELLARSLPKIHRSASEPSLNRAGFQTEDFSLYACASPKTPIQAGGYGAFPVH
T2 sequence (P04049 306-648 Y340D/Y341D limits assumed): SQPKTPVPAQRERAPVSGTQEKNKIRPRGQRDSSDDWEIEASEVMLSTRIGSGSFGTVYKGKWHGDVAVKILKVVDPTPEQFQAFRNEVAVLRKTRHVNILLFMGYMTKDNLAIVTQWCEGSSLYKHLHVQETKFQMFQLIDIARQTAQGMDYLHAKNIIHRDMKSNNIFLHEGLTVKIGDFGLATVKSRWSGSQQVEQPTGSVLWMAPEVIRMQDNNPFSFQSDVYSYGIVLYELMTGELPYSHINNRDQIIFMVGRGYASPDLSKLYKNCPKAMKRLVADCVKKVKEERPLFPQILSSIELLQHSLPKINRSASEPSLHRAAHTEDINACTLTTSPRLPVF
T1 sequence (Q02750 whole entry): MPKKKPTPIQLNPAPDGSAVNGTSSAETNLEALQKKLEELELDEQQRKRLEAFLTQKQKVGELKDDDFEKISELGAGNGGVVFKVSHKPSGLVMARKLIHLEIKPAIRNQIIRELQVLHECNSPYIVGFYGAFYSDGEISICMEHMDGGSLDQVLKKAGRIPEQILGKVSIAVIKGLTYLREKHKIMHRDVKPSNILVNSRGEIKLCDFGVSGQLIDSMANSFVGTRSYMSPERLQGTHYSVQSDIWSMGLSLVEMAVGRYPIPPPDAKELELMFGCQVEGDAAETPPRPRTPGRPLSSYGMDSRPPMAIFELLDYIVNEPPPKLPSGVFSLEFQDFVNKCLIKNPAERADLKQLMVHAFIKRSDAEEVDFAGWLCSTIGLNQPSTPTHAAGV

Cc1ncc(C(=O)Nc2ccc(CN3CCN(C)CC3)c(C(F)(F)F)c2)cc1C#Cc1c(N)ncc2ccc(F)cc12 [Compound 7]
cells in the sub-G1 phase [1]: accumulation | distribution of cells in the S phase [1]: decreases | population of cells in the G0/G1 phase ([1]; dose- and time-dependent): increase | adverse events / signs of toxicity on repeated dosing ([2]; 25 mg/kg IP 3×/week for several weeks, listed as HSN431): without any adverse events; also recorded: without any obvious signs of toxicity | reduction in leukemia burden ([2]; 25 mg/kg i.p. three times a week (MWF), NSG or NRG mice): > 99% | Photon intensity on whole body (mean±SEM) ([2]; Day 1, n = 5): 130000 ± 21400 | Photon intensity on whole body (mean±SEM) ([2]; Day 27, n = 5): 4570 ± 615 | Photon intensity on whole body (mean±SEM) ([2]; Day 41, n = 5): 19600 ± 3730 | Photon intensity on whole body (mean±SEM) ([2]; Day 73, n = 5): 4390 ± 140 | survival ([2]; after day 73, 25 mg/kg IP 3×/week, n = 5): all five mice were still alive | mice still alive ([2]; day 40, 25 mg/kg three times per week, all control mice had died): 100% | inhibition of MEK1 kinase activity [3]: but not the downstream effectors MEK1, ERK1 and RSK1 | IC50 [4]: 12.8 nM | IC50 [5]: 46.2 nM | IC50 [6]: 1480 nM | IC50 [7]: 26.3 nM | IC50 [8]: 44.7 nM | IC50 [9]: 27.6 nM | phosphorylation of FLT3 [10]: Inhibition | inhibition at 0.5 µM [11]: 97%
